# Experimental data as given in patent publication US12133851B2, “Treatment of cholangiocarcinoma” (Janssen Pharmaceutica NV, priority 2018, dated 2024).
# Like-named read-outs stand apart in the source and are kept apart here.
# Tests used:
# [1] = system: advanced cholangiocarcinoma subjects with FGFR alterations
# Protocol: Tumor assessments: Conducted every 8 (±1) weeks up to 1 year from start of study drug, then every 12 (±1) weeks thereafter until the patient dies, or withdrawal of consent or conclusion of the study, whichever occurs first.
# ORR (complete response [CR] or partial response [PR]) and disease control rate (DCR) was calculated with 95% CI.
# PFS was represented with descriptive summary statistics; Kaplan-Meier method was used for evaluation.
# [2] = system: patients with FGFR-aberrant cholangiocarcinoma
# [3] = LUC2001 (NCT02699606): pharmacokinetics and PK/PD (serum phosphate); type: in vivo, human
# Protocol: Pharmacodynamic and safety: Serum phosphate concentration was continuously monitored as a pharmacodynamic endpoint during the study to facilitate dose adjustment per protocol specification. Serum phosphate was measured on cycle 1 day 14 for pharmacodynamic uptitration. On study, serum phosphate concentration was set to be below 7 mg/dL in order to avoid prolonged hyperphosphatemia.
# Post hoc visual predictive check was performed on an existing population PK model, built with data from 373 patients with various tumor types (majority were caucasians).
# Post hoc visual predictive check was performed on serum phosphate concentration data based on an existing population PK/PD model.
# [4] = as of 20 Aug. 2018, 11 patients
# [5] = conclusion of snapshot 20 Mar. 2018
# [6] = snapshot as of 20 Mar. 2018, 8 mg qd
# [7] = snapshot as of 20 Mar. 2018, 11 subjects, 8 mg qd
# [8] = as of 20 Aug. 2018, FGFR2 fusion
# [9] = as of 20 Aug. 2018, patients with FGFR2 alteration (n=9)
# [10] = snapshot as of 20 Mar. 2018, 11 response evaluable, 8 mg qd
# [11] = median follow-up 5.5 mo, 11 patients
# [12] = of the 3 partial responses among 11 patients
smiles,measurement,setting,value
"COc1cc(OC)cc(N(CCNC(C)C)c2ccc3ncc(-c4cnn(C)c4)nc3c2)c1 [erdafitinib, N-(3,5-dimethoxy-phenyl)-N′-(1-methylethyl)-N-[3-(1-methyl-1H-pyrazol-4-yl)quinoxalin-6-yl]ethane-1,2-diamine]","Drug-related TEAE Alanine aminotransferase increased, Any grade","Erdafitinib 8 mg (QD), N = 11",2 N
same,"Drug-related TEAE Aspartate aminotransferase increased, Any grade","Erdafitinib 8 mg (QD), N = 11",2 N
same,"Drug-related TEAE Constipation, Any grade","Erdafitinib 8 mg (QD), N = 11",3 N
same,"Drug-related TEAE Decreased appetite, Any grade","Erdafitinib 8 mg (QD), N = 11",3 N
same,"Drug-related TEAE Diarrhoea, Any grade","Erdafitinib 8 mg (QD), N = 11",3 N
same,"Drug-related TEAE Dry eye, Any grade","Erdafitinib 8 mg (QD), N = 11",2 N
same,"Drug-related TEAE Dry mouth, Any grade","Erdafitinib 8 mg (QD), N = 11",8 N
same,"Drug-related TEAE Dry mouth, ≥Grade 3","Erdafitinib 8 mg (QD), N = 11",1 N
same,"Drug-related TEAE Dry skin, Any grade","Erdafitinib 8 mg (QD), N = 11",5 N
same,"Drug-related TEAE Dry skin, ≥Grade 3","Erdafitinib 8 mg (QD), N = 11",1 N
same,"Drug-related TEAE Hyperphosphataemia, Any grade","Erdafitinib 8 mg (QD), N = 11",10 N
same,"Drug-related TEAE Hyponatremia, Any grade","Erdafitinib 8 mg (QD), N = 11",1 N
same,"Drug-related TEAE Hyponatremia, ≥Grade 3","Erdafitinib 8 mg (QD), N = 11",1 N
same,"Drug-related TEAE Nail disorder, Any grade","Erdafitinib 8 mg (QD), N = 11",4 N
same,"Drug-related TEAE Nail disorder, ≥Grade 3","Erdafitinib 8 mg (QD), N = 11",1 N
same,"Drug-related TEAE Nausea, Any grade","Erdafitinib 8 mg (QD), N = 11",2 N
same,"Drug-related TEAE Onycholysis, Any grade","Erdafitinib 8 mg (QD), N = 11",1 N
same,"Drug-related TEAE Onycholysis, ≥Grade 3","Erdafitinib 8 mg (QD), N = 11",1 N
same,"Drug-related TEAE Onychomycosis, Any grade","Erdafitinib 8 mg (QD), N = 11",2 N
same,"Drug-related TEAE Palmar-plantar erythrodysaesthesia syndrome, Any grade","Erdafitinib 8 mg (QD), N = 11",4 N
same,"Drug-related TEAE Paronychia, Any grade","Erdafitinib 8 mg (QD), N = 11",3 N
same,"Drug-related TEAE Paronychia, ≥Grade 3","Erdafitinib 8 mg (QD), N = 11",1 N
same,"Drug-related TEAE Punctate keratitis, Any grade","Erdafitinib 8 mg (QD), N = 11",2 N
same,"Drug-related TEAE Stomatitis, Any grade","Erdafitinib 8 mg (QD), N = 11",8 N
same,"Drug-related TEAE Stomatitis, ≥Grade 3","Erdafitinib 8 mg (QD), N = 11",2 N
same,"Patients with drug-related TEAEs, Any grade","Erdafitinib 8 mg (QD), N = 11",11 N
same,"Patients with drug-related TEAEs, ≥Grade 3","Erdafitinib 8 mg (QD), N = 11",6 N
same,patients reporting Grade 3 or higher TEAEs,"as of 20 Aug. 2018, 8 mg once daily",6/11
same,AE leading to treatment discontinuation or death,[4],no AE
same,most common TEAEs,[4],"hyperphosphatemia, dry mouth, stomatitis, dry skin, nail disorder, and palmar-plantar erythrodysaesthesia syndrome"
same,patients who experienced drug-related TEAEs,"as of 20 Aug. 2018, 11 patients, 8 mg once daily",All patients
same,Serious TEAEs (not drug-related),"as of 20 Aug. 2018, of 11 (27.3%), upper gastrointestinal haemorrhage, pyelonephritis acute, pathological fracture, n=1 each",3 patients
same,Drug-related TEAEs leading to dose reduction,"as of 20 Aug. 2018, of 11 patients (45.5%)",5 patients
same,Grade 3 or higher drug-related TEAEs,"as of 20 Aug. 2018, of 11 patients (54.5%)",Six
same,drug-related TEAEs leading to dose interruption,"as of 20 Aug. 2018, of 11 patients (100%)",11 patients
same,safety profile in patients with FGFR-aberrant advanced cholangiocarcinoma,[5],tolerable safety profile
same,AE diarrhea (subjects),[6],4/11
same,AE dry mouth (subjects),[6],7/11
same,AE hyperphosphatemia (subjects),[6],8/11
same,AE nail disorder (subjects),[6],4/11
same,AE palmar-plantar erythrodysaesthesia syndrome (subjects),[6],4/11
same,AE stomatitis (subjects),[6],7/11
same,AE leading to treatment discontinuation or death,[7],no AE
same,drug related SAE,[7],no drug related SAE
same,subjects who experienced AEs,[7],All subjects
same,subjects who experienced Grade 3 or worse AEs,[7],7
same,subjects who experienced serious AEs (SAEs),[7],3
same,subjects with AEs leading to dose reduction,[7],3
same,subjects with AEs leading to drug interruption,[7],all
same,ORR - Objective Response Rate (CR+PR),"[1]; as of 20 Aug. 2018, 11 response evaluable, 8 mg once daily, n=5, 95% CI 16.7;76.6",45.5%
same,ORR (CR+PR+uCR+uPR),"[1]; as of 20 Aug. 2018, 11 response evaluable, 8 mg once daily, n=6, 95% CI 23.4;83.3",54.5%
same,Disease Control Rate-DCR (CR+PR+SD),"[1]; as of 20 Aug. 2018, 11 response evaluable, 8 mg once daily, n=8, 95% CI 39.0;94.0",72.7%
same,DCR (CR+PR+uCR+uPR+SD),"[1]; as of 20 Aug. 2018, 11 response evaluable, 8 mg once daily, n=9, 95% CI 48.2;97.7",81.8%
same,9-months PFS rate,"[1]; as of 20 Aug. 2018, 95% CI 11, 68",40%
same,"stable disease (SD), number of patients",[1]; [8],3
same,"unconfirmed PR, number of patients",[1]; [8],1
same,"confirmed PR, number of patients","[1]; as of 20 Aug. 2018, all FGFR2 alteration (1 mutation and 4 fusions)",5
same,"progressive disease (PD), number of patients","[1]; as of 20 Aug. 2018, both with FGFR3 mutations and concurrent KRAS mutations",2
same,9-months PFS rate,[1]; [9],49%
same,DCR,[1]; [9],100%
same,ORR (CR+PR+uCR+uPR),[1]; [9],66.7%
same,maximum tumor shrinkage,[1]; one PR patient with a FGFR2-KIAA1598 fusion,−46.2%
same,DCR (CR+PR+uCR+uPR+SD),[1]; [10],81.8%
same,ORR (CR+PR+uCR+uPR),[1]; [10],45.5%
same,"PD, number of subjects",[1]; [10],2
same,"partial response (PR), number of subjects",[1]; [10],3
same,"stable disease (SD), number of subjects",[1]; [10],4
same,"unconfirmed PR (uPR), number of subjects",[1]; [10],2
same,objective response rate,"[2]; 9 mg QD or 10 mg intermittent, all responses at 10 mg intermittent",27.3%
same,partial responses (number of patients),"[2]; 11 patients with FGFR-aberrant cholangiocarcinoma, 9 mg QD (n=1) or 10 mg intermittent (n=10)",3
same,"Overall disease control rate, including stable disease","[2]; 11 patients, 9 mg QD or 10 mg intermittent, 6/11",54.5%
same,6-mo progression-free survival rate,[2]; [11],36%
same,9-mo progression-free survival rate,[2]; [11],24%
same,Median progression-free survival,"[2]; median follow-up 5.5 mo, 95% CI 1.6 to 11.8 mo",5.1 mo
same,partial responses in patients with fusion FGFR2-BICC1,[2]; [12],1
same,partial responses in patients with fusion FGFR2-CCAR1,[2]; [12],1
same,results of PK and PK/PD relationship in Asian patients with advanced CCA,"[3]; as of 20 Aug. 2018, post hoc visual predictive check on population PK and PK/PD models",consistent with that known from patients with other types of solid tumor and different ethnic background
same,PK characteristics,[3]; [5],consistent with data from other erdafitinib studies
